Data reported in ChEMBL document CHEMBL4138123, “Design, synthesis and biological evaluation of novel pyrazolochalcones as potential modulators of PI3K/Akt/mTOR pathway and inducers of apoptosis in breast cancer cells” (Eur J Med Chem, 2017).

What was measured:
Assay type in all cases: functional
[1] = system: SK-OV-3; assay: Cytotoxicity against human SKOV3 cells assessed as cell growth at 100 uM after 48 hrs by sulforhodamine B assay relative to control; conditions: SK-OV-3, 48 h, read-out: Activity
[2] = system: Malme-3M; assay: Cytotoxicity against human MALME-3M cells assessed as cell growth at 0.01 uM after 48 hrs by sulforhodamine B assay relative to control; conditions: read-out: Activity
[3] = system: NCI-H322M; assay: Cytotoxicity against human NCI-H322M cells assessed as cell growth at 100 uM after 48 hrs by sulforhodamine B assay relative to control; conditions: read-out: Activity
[4] = system: T47D; assay: Cytotoxicity against human T47D cells assessed as cell growth at 100 uM after 48 hrs by sulforhodamine B assay relative to control; conditions: read-out: Activity
[5] = system: HL-60(TB); assay: Cytotoxicity against human HL-60(TB) cells assessed as cell growth at 1 uM after 48 hrs by sulforhodamine B assay relative to control; conditions: HL-60, 48 h, read-out: Activity
[6] = system: U-251; assay: Cytotoxicity against human U251 cells assessed as cell growth at 100 uM after 48 hrs by sulforhodamine B assay relative to control; conditions: U-251, 48 h, read-out: Activity
[7] = system: SNB-19; assay: Cytotoxicity against human SNB19 cells assessed as cell growth at 10 uM after 48 hrs by sulforhodamine B assay relative to control; conditions: SNB-19, 48 h, read-out: Activity
[8] = system: SK-MEL-28; assay: Cytotoxicity against human SK-MEL-28 cells assessed as cell growth at 0.01 uM after 48 hrs by sulforhodamine B assay relative to control; conditions: SK-MEL-28, 48 h, read-out: Activity
[9] = system: RPMI-8226; assay: Cytotoxicity against human RPMI8226 cells assessed as cell growth at 1 uM after 48 hrs by sulforhodamine B assay relative to control; conditions: RPMI-8226, 48 h, read-out: Activity
[10] = system: SN12C; assay: Cytotoxicity against human SN12C cells assessed as cell growth at 10 uM after 48 hrs by sulforhodamine B assay relative to control; conditions: read-out: Activity
[11] = system: SN12C; assay: Cytotoxicity against human SN12C cells assessed as cell growth at 1 uM after 48 hrs by sulforhodamine B assay relative to control; conditions: read-out: Activity
[12] = system: IGROV-1; assay: Cytotoxicity against human IGROV1 cells assessed as cell growth at 10 uM after 48 hrs by sulforhodamine B assay relative to control; conditions: IGROV-1, 48 h, read-out: Activity
[13] = system: OVCAR-5; assay: Cytotoxicity against human OVCAR5 cells assessed as cell growth at 0.1 uM after 48 hrs by sulforhodamine B assay relative to control; conditions: OVCAR-5, 48 h, read-out: Activity
[14] = system: SNB-19; assay: Cytotoxicity against human SNB19 cells assessed as cell growth at 0.1 uM after 48 hrs by sulforhodamine B assay relative to control; conditions: SNB-19, 48 h, read-out: Activity
[15] = system: T47D; assay: Cytotoxicity against human T47D cells assessed as cell growth at 0.1 uM after 48 hrs by sulforhodamine B assay relative to control; conditions: read-out: Activity
[16] = system: A549; assay: Cytotoxicity against human A549/ATCC cells assessed as cell growth at 0.1 uM after 48 hrs by sulforhodamine B assay relative to control; conditions: A549, 48 h, read-out: Activity
[17] = system: A549; assay: Cytotoxicity against human A549/ATCC cells assessed as cell growth at 1 uM after 48 hrs by sulforhodamine B assay relative to control; conditions: A549, 48 h, read-out: Activity
[18] = system: U-251; assay: Cytotoxicity against human U251 cells assessed as cell growth at 10 uM after 48 hrs by sulforhodamine B assay relative to control; conditions: U-251, 48 h, read-out: Activity
[19] = system: CCRF-CEM; assay: Cytotoxicity against human CCRF-CEM cells assessed as growth inhibition after 48 hrs by sulforhodamine B assay
[20] = system: HL-60(TB); assay: Cytotoxicity against human HL-60(TB) cells assessed as growth inhibition after 48 hrs by sulforhodamine B assay; conditions: HL-60, 48 h
[21] = system: Hs-578T; assay: Cytotoxicity against human Hs 578T cells assessed as cell growth at 1 uM after 48 hrs by sulforhodamine B assay relative to control; conditions: read-out: Activity
[22] = system: A498; assay: Cytotoxicity against human A498 cells assessed as cell growth at 0.01 uM after 48 hrs by sulforhodamine B assay relative to control; conditions: A498, 48 h, read-out: Activity
[23] = system: MOLT-4; assay: Cytotoxicity against human MOLT4 cells assessed as growth inhibition after 48 hrs by sulforhodamine B assay; conditions: MOLT-4, 48 h; for CC50: read-out: LC50 (the source's name)
[24] = system: NCI-H522; assay: Cytotoxicity against human NCI-H522 cells assessed as cell growth at 0.01 uM after 48 hrs by sulforhodamine B assay relative to control; conditions: NCI-H522, 48 h, read-out: Activity
[25] = system: PC-3; assay: Cytotoxicity against human PC3 cells assessed as cell growth at 0.1 uM after 48 hrs by sulforhodamine B assay relative to control; conditions: PC-3, 48 h, read-out: Activity
[26] = system: RPMI-8226; assay: Cytotoxicity against human RPMI8226 cells assessed as cell growth at 0.1 uM after 48 hrs by sulforhodamine B assay relative to control; conditions: RPMI-8226, 48 h, read-out: Activity
[27] = system: A549; assay: Cytotoxicity against human A549/ATCC cells assessed as cell growth at 10 uM after 48 hrs by sulforhodamine B assay relative to control; conditions: A549, 48 h, read-out: Activity
[28] = system: COLO 205; assay: Cytotoxicity against human COLO205 cells assessed as cell growth at 0.1 uM after 48 hrs by sulforhodamine B assay relative to control; conditions: COLO 205, 48 h, read-out: Activity
[29] = system: HL-60(TB); assay: Cytotoxicity against human HL-60(TB) cells assessed as cell growth at 0.1 uM after 48 hrs by sulforhodamine B assay relative to control; conditions: HL-60, 48 h, read-out: Activity
[30] = system: MCF7; assay: Cytotoxicity against human MCF7 cells assessed as growth inhibition after 48 hrs by sulforhodamine B assay; conditions: MCF7, 48 h
[31] = system: MCF7; assay: Cytotoxicity against human MCF7 cells assessed as cell growth at 0.1 uM after 48 hrs by sulforhodamine B assay relative to control; conditions: MCF7, 48 h, read-out: Activity
[32] = system: UO-31; assay: Cytotoxicity against human UO31 cells assessed as cell growth at 1 uM after 48 hrs by sulforhodamine B assay relative to control; conditions: UO-31, 48 h, read-out: Activity
[33] = system: OVCAR-3; assay: Cytotoxicity against human OVCAR3 cells assessed as cell growth at 100 uM after 48 hrs by sulforhodamine B assay relative to control; conditions: OVCAR-3, 48 h, read-out: Activity
[34] = system: OVCAR-3; assay: Cytotoxicity against human OVCAR3 cells assessed as growth inhibition after 48 hrs by sulforhodamine B assay; conditions: OVCAR-3, 48 h
[35] = system: RPMI-8226; assay: Cytotoxicity against human RPMI8226 cells assessed as cell growth at 0.01 uM after 48 hrs by sulforhodamine B assay relative to control; conditions: RPMI-8226, 48 h, read-out: Activity
[36] = system: IGROV-1; assay: Cytotoxicity against human IGROV1 cells assessed as growth inhibition after 48 hrs by sulforhodamine B assay; conditions: IGROV-1, 48 h
[37] = system: NCI/ADR-RES; assay: Cytotoxicity against human NCI/ADR-RES cells assessed as cell growth at 0.01 uM after 48 hrs by sulforhodamine B assay relative to control; conditions: read-out: Activity

For COc1ccc(C(=O)/C=C/c2cc(-c3ccc4c(c3)OCO4)n[nH]2)cc1OC, the growth at 100 µM [1] was -23%, the growth at 0.01 µM [2] was 93% and the growth at 100 µM [3] was -90%. For the same compound, the growth at 100 µM [4] was -31%, the growth at 1 µM [5] was 89% and the growth at 100 µM [6] was -91%. It also gave a growth at 10 µM [7] of 21%, a growth at 0.01 µM [8] of 99% and a growth at 1 µM [9] of 51%. The growth at 10 µM [10] was 11%, the growth at 1 µM [11] was 91% and the growth at 10 µM [12] was -4%. The growth at 0.1 µM [13] was 95%, the growth at 0.1 µM [14] was 89% and the growth at 0.1 µM [15] was 94%. The growth at 0.1 µM [16] was 96%, the growth at 1 µM [17] was 85% and the growth at 10 µM [18] was -25%. For the same compound, the LC50 (concentration killing 50% of cells) [19] was > 100 µM, the TGI [19] was 9.58 µM and the LC50 [20] was > 100 µM. The TGI [20] was 11.8 µM, the growth at 1 µM [21] was 94% and the growth at 0.01 µM [22] was 78%. For the same compound, the TGI [23] was 10.3 µM, the CC50 [23] was > 100 µM and the growth at 0.01 µM [24] was 85%. The growth at 0.1 µM [25] was 95%, the growth at 0.1 µM [26] was 97% and the growth at 10 µM [27] was 3%. For the same compound, the growth at 0.1 µM [28] was 103%, the growth at 0.1 µM [29] was 96% and the GI50 [30] was 3.27 µM. For the same compound, the LC50 [30] was > 100 µM, the TGI [30] was 16.8 µM and the growth at 0.1 µM [31] was 94%. The growth at 1 µM [32] was 79%, the growth at 100 µM [33] was -67% and the LC50 [34] was 14.3 µM. It also gave a TGI [34] of 4.61 µM, a growth at 0.01 µM [35] of 99% and an LC50 [36] of 68 µM. For the same compound, the TGI [36] was 9.2 µM.

Work on COc1cc(C(=O)/C=C/c2cc(-c3ccc4c(c3)OCO4)n[nH]2)cc(OC)c1OC yielded a growth at 100 µM [1] of -98%, a growth at 0.01 µM [2] of 94% and a growth at 100 µM [3] of -95%. It also gave a growth at 100 µM [4] of -87%, a growth at 1 µM [5] of 85% and a growth at 100 µM [6] of -98%. The growth at 10 µM [7] was 7%, the growth at 0.01 µM [8] was 100% and the growth at 1 µM [9] was 32%. It also gave a growth at 10 µM [10] of -23%, a growth at 1 µM [11] of 90% and a growth at 10 µM [12] of -26%. The growth at 0.01 µM [37] was 95%, the growth at 0.1 µM [13] was 99% and the growth at 0.1 µM [14] was 93%. It also gave a growth at 0.1 µM [15] of 77%, a growth at 0.1 µM [16] of 98% and a growth at 1 µM [17] of 85%. For the same compound, the growth at 10 µM [18] was -96%, the GI50 [19] was 2 µM and the LC50 (concentration killing 50% of cells) [19] was > 100 µM. For the same compound, the TGI [19] was 5.74 µM, the GI50 [20] was 2.17 µM and the LC50 [20] was > 100 µM. For the same compound, the TGI [20] was 6.49 µM, the growth at 1 µM [21] was 90% and the growth at 0.01 µM [22] was 89%. For the same compound, the GI50 [23] was 2.71 µM, the TGI [23] was 8.36 µM and the CC50 [23] was > 100 µM. For the same compound, the growth at 0.01 µM [24] was 97%, the growth at 0.1 µM [25] was 95% and the growth at 0.1 µM [26] was 93%. It also gave a growth at 10 µM [27] of -22%, a growth at 0.1 µM [28] of 98% and a growth at 0.1 µM [29] of 98%. It also gave a GI50 [30] of 1.06 µM, an LC50 [30] of 7.88 µM and a TGI [30] of 2.88 µM. It also gave a growth at 0.1 µM [31] of 94%, a growth at 1 µM [32] of 71% and a growth at 100 µM [33] of -97%. The GI50 [34] was 1.71 µM, the LC50 [34] was 7.17 µM and the TGI [34] was 3.5 µM. The growth at 0.01 µM [35] was 101%, the GI50 [36] was 1.99 µM and the LC50 [36] was 23.4 µM. For the same compound, the TGI [36] was 5.72 µM.
